Measured values: patent US10105373B2, “Fused triterpene compounds and uses thereof” (PIRAMAL ENTERPRISES LIMITED, priority 2014, dated 2018)

Biological target: T1, RORγt receptor protein (Homo sapiens, UniProt P51449)
T1 sequence (P51449 1-497 isoform P51449-2): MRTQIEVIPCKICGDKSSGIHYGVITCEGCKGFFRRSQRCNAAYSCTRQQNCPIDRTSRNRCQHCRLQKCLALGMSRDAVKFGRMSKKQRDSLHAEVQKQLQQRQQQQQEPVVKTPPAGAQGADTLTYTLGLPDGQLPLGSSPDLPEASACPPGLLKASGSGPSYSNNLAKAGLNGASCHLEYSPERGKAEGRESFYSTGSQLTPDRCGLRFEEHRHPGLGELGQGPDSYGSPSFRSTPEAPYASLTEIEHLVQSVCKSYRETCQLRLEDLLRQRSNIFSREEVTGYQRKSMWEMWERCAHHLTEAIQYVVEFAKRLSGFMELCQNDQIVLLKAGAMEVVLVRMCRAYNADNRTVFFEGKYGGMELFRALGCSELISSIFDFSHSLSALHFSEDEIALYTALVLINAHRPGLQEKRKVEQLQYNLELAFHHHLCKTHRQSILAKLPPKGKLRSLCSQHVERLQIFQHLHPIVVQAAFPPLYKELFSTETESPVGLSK
Test: General RORγ binding assay (radioligand binding, [3H]25-hydroxy cholesterol displacement)
Details: displacement of [3H]25-hydroxy cholesterol from 200 ng RORγt receptor protein, 1 h room temperature; test concentrations 0.01-3 μM, concentration for the % not stated
Experimental: General RORγ Binding Assay:
The RORγ binding of compounds of the present invention as described herein to RORγ was measured. For the radioligand binding assay, various concentrations of the test compounds were prepared (0.01 μM, 0.03 μM, 0.1 μM, 0.3 μM, 1 μM and 3 μM) and the samples were incubated with 200 ng of RORγt receptor protein in the presence of the [^3H]25-hydroxy cholesterol and the mixture was incubated at room temperature for 1 h. An extent of displacement of the radioligand was measured after harvesting the reaction mixture on filter plate reader using TopCount (Perkin Elmer) for radioactivity. The compounds of present invention were tested for RORγ binding using the above assay procedure and the results obtained are given in the below Table 1.

Structure (SMILES)	ROR binding (%)
C[C@H]1[C@H](C)CC[C@]2(C(=O)O)CC[C@]3(C)C(=CC[C@@H]4[C@@]5(C)Cc6cncnc6C(C)(C)[C@@H]5CC[C@]43C)[C@H]12 [Example 6, (1S,2R,4aS,6aS,6bR,8aR,14aR,14bR,16bS)-1,2,6a,6b,9,9,14a-heptamethyl-1,2,3,4,4a,5,6,6a,6b,7,8,8a,9,14,14a,14b,15,16b-octadecahydrochryseno[1,2-g]quinazoline-4a-carboxylic acid]	+++ (‘+++’ corresponds to more than 80% binding of the compounds of present invention)
C[C@H]1[C@H](C)CC[C@]2(C(=O)O)CC[C@]3(C)C(=CC[C@@H]4[C@@]5(C)Cc6c(N7CCOCC7)ncnc6C(C)(C)[C@@H]5CC[C@]43C)[C@H]12 [Example 14, (1S,2R,4aS,6aS,6bR,8aR,14aR,14bR,16bS)-1,2,6a,6b,9,9,14a-heptamethyl-13-morpholino-1,2,3,4,4a,5,6,6a,6b,7,8,8a,9,14,14a,14b,15,16b-octadecahydrochryseno[1,2-g]quinazoline-4a-carboxylic acid]	++ (‘++’ corresponds to 50 to 70% binding of the compounds of present invention)
COc1ncnc2c1C[C@]1(C)[C@H]3CC=C4[C@@H]5[C@@H](C)[C@H](C)CC[C@]5(C(=O)O)CC[C@@]4(C)[C@]3(C)CC[C@H]1C2(C)C [Example 23, (1S,2R,4aS,6aS,6bR,8aR,14aR,14bR,16bS)-13-methoxy-1,2,6a,6b,9,9,14a-heptamethyl-1,2,3,4,4a,5,6,6a,6b,7,8,8a,9,14,14a,14b,15,16b-octadecahydrochryseno[1,2-g]quinazoline-4a-carboxylic acid]	++ (‘++’ corresponds to 50 to 70% binding of the compounds of present invention)
C[C@H]1[C@H](C)CC[C@]2(C(=O)O)CC[C@]3(C)C(=CC[C@@H]4[C@@]5(C)Cc6c(N(C)C)ncnc6C(C)(C)[C@@H]5CC[C@]43C)[C@H]12 [Example 27, (1S,2R,4aS,6aS,6bR,8aR,14aR,14bR,16bS)-13-(dimethylamino)-1,2,6a,6b,9,9,14a-hepta methyl-1,2,3,4,4a,5,6,6a,6b,7,8,8a,9,14,14a,14b,15,16b-octadecahydrochryseno[1,2-g]quinazoline-4a-carboxylic acid]	++ (‘++’ corresponds to 50 to 70% binding of the compounds of present invention)
Cc1nc(O)c2c(n1)C(C)(C)[C@@H]1CC[C@]3(C)[C@H](CC=C4[C@@H]5[C@@H](C)[C@H](C)CC[C@]5(C(=O)O)CC[C@]43C)[C@@]1(C)C2 [Example 31, (1S,2R,4aS,6aS,6bR,8aR,14aR,14bR,16bS)-13-hydroxy-1,2,6a,6b,9,9,11,14a-octamethyl-1,2,3,4,4a,5,6,6a,6b,7,8,8a,9,14,14a,14b,15,16b-octadecahydrochryseno[1,2-g]quinazoline-4a-carboxylic acid]	++ (‘++’ corresponds to 50 to 70% binding of the compounds of present invention)
Cc1nc(N(C)C)c2c(n1)C(C)(C)[C@@H]1CC[C@]3(C)[C@H](CC=C4[C@@H]5[C@@H](C)[C@H](C)CC[C@]5(C(=O)O)CC[C@]43C)[C@@]1(C)C2 [Example 38, (1S,2R,4aS,6aS,6bR,8aR,14aR,14bR,16bS)-13-(dimethylamino)-1,2,6a,6b,9,9,11,14a-octamethyl-1,2,3,4,4a,5,6,6a,6b,7,8,8a,9,14,14a,14b,15,16b-octadecahydrochryseno[1,2-g]quinazoline-4a-carboxylic acid]	++ (‘++’ corresponds to 50 to 70% binding of the compounds of present invention)
Cc1nc(N2CCCC2)c2c(n1)C(C)(C)[C@@H]1CC[C@]3(C)[C@H](CC=C4[C@@H]5[C@@H](C)[C@H](C)CC[C@]5(C(=O)O)CC[C@]43C)[C@@]1(C)C2 [Example 45, (1S,2R,4aS,6aS,6bR,8aR,14aR,14bR,16bS)-1,2,6a,6b,9,9,11,14a-octamethyl-13-(pyrrolidin-1-yl)-1,2,3,4,4a,5,6,6a,6b,7,8,8a,9,14,14a,14b,15,16b-octadecahydrochryseno[1,2-g]quinazoline-4a-carboxylic acid]	++ (‘++’ corresponds to 50 to 70% binding of the compounds of present invention)
Cc1nc(N2CCOCC2)c2c(n1)C(C)(C)[C@@H]1CC[C@]3(C)[C@H](CC=C4[C@@H]5[C@@H](C)[C@H](C)CC[C@]5(C(=O)O)CC[C@]43C)[C@@]1(C)C2 [Example 55, (1S,2R,4aS,6aS,6bR,8aR,14aR,14bR,16bS)-1,2,6a,6b,9,9,11,14a-octamethyl-13-morpholino-1,2,3,4,4a,5,6,6a,6b,7,8,8a,9,14,14a,14b,15,16b-octadecahydrochryseno[1,2-g]quinazoline-4a-carboxylic acid]	++ (‘++’ corresponds to 50 to 70% binding of the compounds of present invention)
Cc1ncc2c(n1)C(C)(C)[C@@H]1CC[C@]3(C)[C@H](CC=C4[C@@H]5[C@@H](C)[C@H](C)CC[C@]5(C(=O)O)CC[C@]43C)[C@@]1(C)C2 [Example 59, (1S,2R,4aS,6aS,6bR,8aR,14aR,14bR,16bS)-1,2,6a,6b,9,9,11,14a-octamethyl-1,2,3,4,4a,5,6,6a,6b,7,8,8a,9,14,14a,14b,15,16b-octadecahydrochryseno[1,2-g]quinazoline-4a-carboxylic acid]	+++ (‘+++’ corresponds to more than 80% binding of the compounds of present invention)
CCS(=O)(=O)c1ncc2c(n1)C(C)(C)[C@@H]1CC[C@]3(C)[C@H](CC=C4C5[C@@H](C)[C@H](C)CC[C@]5(C(=O)O)CC[C@]43C)[C@@]1(C)C2 (stereo partly drawn) [Example 78, (1S,2R,4aS,6aS,6bR,8aR,14aR,14bR)-11-(ethylsulfonyl)-1,2,6a,6b,9,9,14a-heptamethyl-1,2,3,4,4a,5,6,6a,6b,7,8,8a,9,14,14a,14b,15,16b-octadecahydrochryseno[1,2-g]quinazoline-4a-carboxylic acid]	+++ (‘+++’ corresponds to more than 80% binding of the compounds of present invention)
C[C@H]1[C@H](C)CC[C@]2(C(=O)O)CC[C@]3(C)C(=CC[C@@H]4[C@@]5(C)Cc6cnc(S(C)(=O)=O)nc6C(C)(C)[C@@H]5CC[C@]43C)[C@H]12 [Example 81, (1S,2R,4aS,6aS,6bR,8aR,14aR,14bR,16bS)-1,2,6a,6b,9,9,14a-heptamethyl-11-(methylsulfonyl)-1,2,3,4,4a,5,6,6a,6b,7,8,8a,9,14,14a,14b,15,16b-octadecahydrochryseno [1,2-g]quinazoline-4a-carboxylic acid]	+++ (‘+++’ corresponds to more than 80% binding of the compounds of present invention)
C[C@H]1[C@H](C)CC[C@]2(C(=O)O)CC[C@]3(C)C(=CC[C@@H]4[C@@]5(C)Cc6cccnc6C(C)(C)[C@@H]5CC[C@]43C)[C@H]12 [Example 84, (1S,2R,4aS,6aS,6bR,8aR,14aR,14bR,16bS)-1,2,3,4,4a,5,6,6a,6b,7,8,8a,9,14,14a,14b,15,16b-octadecahydro-1,2,6a, 6b,9,9,14a-heptamethylchryseno[1,2-g]quinoline-4a-carboxylic acid]	++ (‘++’ corresponds to 50 to 70% binding of the compounds of present invention)
C[C@H]1[C@H](C)CC[C@]2(C(=O)O)CC[C@]3(C)C(=CC[C@@H]4[C@@]5(C)Cc6cc(C(N)=O)cnc6C(C)(C)[C@@H]5CC[C@]43C)[C@H]12 [Example 94, (1S,2R,4aS,6aS,6bR,8aR,14aR,14bR,16bS)-12-carbamoyl-1,2,3,4,4a,5,6,6a,6b,7,8,8a,9,14,14a,14b,15,16b-octadecahydro-1,2,6a,6b,9,9,14a-heptamethylchryseno[1,2-g]quinoline-4a-carboxylic acid]	++ (‘++’ corresponds to 50 to 70% binding of the compounds of present invention)
